Values of other authors, collected in patent US20070117837A1, “Process for the preparation of amorphous form of a platelet aggregation inhibitor drug” (EGIS GYOGYSZERGYAR RT., priority 2003, published 2007).

Conditions: amorphous form compared with its morphologically uniform crystalline forms

CC(C)c1c(C(=O)Nc2ccccc2)c(-c2ccccc2)c(-c2ccc(F)cc2)n1CC[C@@H](O)C[C@@H](O)CC(=O)O [atorvastatine calcium]
biological availability: better
